From patent US20020002171A1, “Materials and methods for killing nematodes and nematode eggs” (priority 2000, published 2002)

What follows are compounds tested on Caenorhabditis elegans (assay: C. elegans L1 nematicidal dose response in 96-well plates, 5 day visual score (Example 2; same procedure for Example 7, Table 3)). Settings: Follow-up HTS run.
Type: in vivo
Parameters: key to 5 Day Visual Score V1 / 5 Day Visual Score V2 / 5 Day Visual Score V3 / 5 Day Visual Score V4 / 5 Day Visual Score V6 / 5 Day Visual Score V5 / Initial HTS Run Visual Score / Follow-up HTS Run Visual Score: Dead: only stiff L1s (no movement); Dead (L4): worms are dead, but at a later larval stage; majority of worms are L1 (based on size) worms move when plate is tapped; majority of worms are L2 (based on size); majority of worms are L3 (based on size); majority of worms are L4 (based on size); AD: majority of worms are adult; #AD: 5 adult worms or less; B!: sterile (0-25 progeny); B: low broodsize (25-100 progeny); ˜B: moderate broodsize (100-250 progeny); <: reduced broodsize (250-500 progeny); OK: no effect (˜1000+ progeny)
How it was run: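 L1 larvae, 20 per well in NGM with 1% E. coli HB101 and antibiotic/antimycotic, exposed to six 3-fold dilutions from 70 μM down to 0.3 μM (1.4% DMSO at top). Held at 20° C; viability scored visually under 100× dissecting microscope on day 5.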

Q: Which “Follow-up HTS Run % Run” value does the source give for `CCCCN(CC)c1nc(NC2CCCCCCCCCCC2)ns1` [compound 332] here?
A: 75%

Q: What about the “Follow-up HTS Run Visual Score” value of the same compound?
A: Dead

Q: What about the “Follow-up HTS Run mOD” value of the same compound?
A: 121 mOD

Q: What does the source list for `CCCCN(Cc1ccccc1)c1nc(NC2CCCCCCCCCCC2)ns1` [compound 333]?
A: Follow-up HTS Run % Run: 76%; Follow-up HTS Run Visual Score: Dead; Follow-up HTS Run mOD: 123 mOD

Q: Which “Follow-up HTS Run % Run” value does the source give for `C=CCN(CC=C)c1nc(NC2CCCCCCCCCCC2)ns1` [compound 334] here?
A: 88%

Q: What about the “Follow-up HTS Run mOD” value of the same compound?
A: 141 mOD

Q: `CN(CCc1ccccc1)c1nc(NC2CCCCCCCCCCC2)ns1` [compound 335] was tested. Which “Follow-up HTS Run % Run” value did it give?
A: 86%

Q: What about the “Follow-up HTS Run Visual Score” value of the same compound?
A: Dead

Q: What about the “Follow-up HTS Run mOD” value of the same compound?
A: 139 mOD

Q: Which results are given for `CN(Cc1ccccc1)c1nc(NC2CCCCCCCCCCC2)ns1` [compound 336]?
A: Follow-up HTS Run % Run: 90%; Follow-up HTS Run mOD: 145 mOD

Q: Which results are given for `COc1ccc(CCN(C)c2nc(NC3CCCCCCCCCCC3)ns2)cc1OC` [compound 337]?
A: Follow-up HTS Run % Run: 68%; Follow-up HTS Run Visual Score: Dead; Follow-up HTS Run mOD: 110 mOD

Q: Which results are given for `FC(F)(F)c1cccc(N2CCN(c3nc(Cl)ns3)CC2)c1` [compound 338]?
A: Follow-up HTS Run % Run: 116%; Follow-up HTS Run Visual Score: B (low broodsize (25-100 progeny)); Follow-up HTS Run mOD: 186 mOD

Same assay, conditions: Initial HTS run

Q: What does the source list for `CCCCN(CC)c1nc(NC2CCCCCCCCCCC2)ns1` [compound 332]?
A: Initial HTS Run % Run: 92%; Initial HTS Run Visual Score: Dead; Initial HTS Run mOD: 101 mOD

Q: How did the “Initial HTS Run % Run” value turn out when `CCCCN(Cc1ccccc1)c1nc(NC2CCCCCCCCCCC2)ns1` [compound 333] was run?
A: 93%

Q: And the “Initial HTS Run Visual Score” value?
A: Dead

Q: And the “Initial HTS Run mOD” value?
A: 102 mOD

Q: For `C=CCN(CC=C)c1nc(NC2CCCCCCCCCCC2)ns1` [compound 334], which “Initial HTS Run % Run” value is on record?
A: 98%

Q: What about the “Initial HTS Run Visual Score” value of the same compound?
A: Dead

Q: And the “Initial HTS Run mOD” value?
A: 108 mOD

Q: `CN(CCc1ccccc1)c1nc(NC2CCCCCCCCCCC2)ns1` [compound 335] was tested. Which “Initial HTS Run % Run” value did it give?
A: 97%

Q: And the “Initial HTS Run Visual Score” value?
A: Dead

Q: What about the “Initial HTS Run mOD” value of the same compound?
A: 107 mOD

Q: How did the “Initial HTS Run % Run” value turn out when `CN(Cc1ccccc1)c1nc(NC2CCCCCCCCCCC2)ns1` [compound 336] was run?
A: 97%

Q: And the “Initial HTS Run Visual Score” value?
A: Dead/1AD/B!

Q: What about the “Initial HTS Run mOD” value of the same compound?
A: 107 mOD

Q: `COc1ccc(CCN(C)c2nc(NC3CCCCCCCCCCC3)ns2)cc1OC` [compound 337] was tested. Which “Initial HTS Run % Run” value did it give?
A: 90%

Q: What about the “Initial HTS Run Visual Score” value of the same compound?
A: Dead

Q: What about the “Initial HTS Run mOD” value of the same compound?
A: 99 mOD

Q: Which “Initial HTS Run % Run” value does the source give for `FC(F)(F)c1cccc(N2CCN(c3nc(Cl)ns3)CC2)c1` [compound 338] here?
A: 94%

Q: And the “Initial HTS Run Visual Score” value?
A: 3AD/B

Q: And the “Initial HTS Run mOD” value?
A: 103 mOD

Same assay, conditions: dose response, dilution V1, 5 day

Q: How did the “5 Day Visual Score V1” value turn out when `CCCCN(CC)c1nc(NC2CCCCCCCCCCC2)ns1` [compound 332] was run?
A: Dead

Q: With `CCCCN(Cc1ccccc1)c1nc(NC2CCCCCCCCCCC2)ns1` [compound 333] as the compound, how does the “5 Day Visual Score V1” value read?
A: Dead

Q: Which “5 Day Visual Score V1” value does the source give for `C=CCN(CC=C)c1nc(NC2CCCCCCCCCCC2)ns1` [compound 334] here?
A: Dead

Q: With `CN(CCc1ccccc1)c1nc(NC2CCCCCCCCCCC2)ns1` [compound 335] as the compound, how does the “5 Day Visual Score V1” value read?
A: Dead

Q: Which “5 Day Visual Score V1” value does the source give for `CN(Cc1ccccc1)c1nc(NC2CCCCCCCCCCC2)ns1` [compound 336] here?
A: Dead

Q: How did the “5 Day Visual Score V1” value turn out when `COc1ccc(CCN(C)c2nc(NC3CCCCCCCCCCC3)ns2)cc1OC` [compound 337] was run?
A: Dead

Q: With `FC(F)(F)c1cccc(N2CCN(c3nc(Cl)ns3)CC2)c1` [compound 338] as the compound, how does the “5 Day Visual Score V1” value read?
A: Dead

Same assay, conditions: dose response, dilution V2, 5 day

Q: `CCCCN(CC)c1nc(NC2CCCCCCCCCCC2)ns1` [compound 332] was tested. Which “5 Day Visual Score V2” value did it give?
A: Dead

Q: For `CCCCN(Cc1ccccc1)c1nc(NC2CCCCCCCCCCC2)ns1` [compound 333], which “5 Day Visual Score V2” value is on record?
A: Dead

Q: For `C=CCN(CC=C)c1nc(NC2CCCCCCCCCCC2)ns1` [compound 334], which “5 Day Visual Score V2” value is on record?
A: Dead

Q: How did the “5 Day Visual Score V2” value turn out when `CN(Cc1ccccc1)c1nc(NC2CCCCCCCCCCC2)ns1` [compound 336] was run?
A: Dead

Q: Which “5 Day Visual Score V2” value does the source give for `COc1ccc(CCN(C)c2nc(NC3CCCCCCCCCCC3)ns2)cc1OC` [compound 337] here?
A: Dead

Same assay, conditions: dose response, dilution V3, 5 day

Q: For `CCCCN(CC)c1nc(NC2CCCCCCCCCCC2)ns1` [compound 332], which “5 Day Visual Score V3” value is on record?
A: L1

Q: How did the “5 Day Visual Score V3” value turn out when `CCCCN(Cc1ccccc1)c1nc(NC2CCCCCCCCCCC2)ns1` [compound 333] was run?
A: Dead

Q: Which “5 Day Visual Score V3” value does the source give for `COc1ccc(CCN(C)c2nc(NC3CCCCCCCCCCC3)ns2)cc1OC` [compound 337] here?
A: Dead

Q: How did the “5 Day Visual Score V3” value turn out when `FC(F)(F)c1cccc(N2CCN(c3nc(Cl)ns3)CC2)c1` [compound 338] was run?
A: < (reduced broodsize (250-500 progeny))

Same assay, conditions: dose response, dilution V4, 5 day

Q: How did the “5 Day Visual Score V4” value turn out when `CCCCN(CC)c1nc(NC2CCCCCCCCCCC2)ns1` [compound 332] was run?
A: OK (no effect (˜1000+ progeny))

Q: How did the “5 Day Visual Score V4” value turn out when `CCCCN(Cc1ccccc1)c1nc(NC2CCCCCCCCCCC2)ns1` [compound 333] was run?
A: OK (no effect (˜1000+ progeny))

Q: Which “5 Day Visual Score V4” value does the source give for `C=CCN(CC=C)c1nc(NC2CCCCCCCCCCC2)ns1` [compound 334] here?
A: OK (no effect (˜1000+ progeny))

Q: Which “5 Day Visual Score V4” value does the source give for `CN(Cc1ccccc1)c1nc(NC2CCCCCCCCCCC2)ns1` [compound 336] here?
A: OK (no effect (˜1000+ progeny))

Q: `COc1ccc(CCN(C)c2nc(NC3CCCCCCCCCCC3)ns2)cc1OC` [compound 337] was tested. Which “5 Day Visual Score V4” value did it give?
A: B (low broodsize (25-100 progeny))

Q: Which “5 Day Visual Score V4” value does the source give for `FC(F)(F)c1cccc(N2CCN(c3nc(Cl)ns3)CC2)c1` [compound 338] here?
A: OK (no effect (˜1000+ progeny))

Same assay, conditions: dose response, dilution V5, 5 day

Q: `CCCCN(CC)c1nc(NC2CCCCCCCCCCC2)ns1` [compound 332] was tested. Which “5 Day Visual Score V5” value did it give?
A: OK (no effect (˜1000+ progeny))

Q: `CCCCN(Cc1ccccc1)c1nc(NC2CCCCCCCCCCC2)ns1` [compound 333] was tested. Which “5 Day Visual Score V5” value did it give?
A: OK (no effect (˜1000+ progeny))

Q: How did the “5 Day Visual Score V5” value turn out when `C=CCN(CC=C)c1nc(NC2CCCCCCCCCCC2)ns1` [compound 334] was run?
A: OK (no effect (˜1000+ progeny))

Q: With `CN(Cc1ccccc1)c1nc(NC2CCCCCCCCCCC2)ns1` [compound 336] as the compound, how does the “5 Day Visual Score V5” value read?
A: OK (no effect (˜1000+ progeny))

Q: For `COc1ccc(CCN(C)c2nc(NC3CCCCCCCCCCC3)ns2)cc1OC` [compound 337], which “5 Day Visual Score V5” value is on record?
A: OK (no effect (˜1000+ progeny))

Q: For `FC(F)(F)c1cccc(N2CCN(c3nc(Cl)ns3)CC2)c1` [compound 338], which “5 Day Visual Score V5” value is on record?
A: OK (no effect (˜1000+ progeny))

Same assay, conditions: dose response, dilution V6, 5 day

Q: `CCCCN(CC)c1nc(NC2CCCCCCCCCCC2)ns1` [compound 332] was tested. Which “5 Day Visual Score V6” value did it give?
A: OK (no effect (˜1000+ progeny))

Q: How did the “5 Day Visual Score V6” value turn out when `CCCCN(Cc1ccccc1)c1nc(NC2CCCCCCCCCCC2)ns1` [compound 333] was run?
A: OK (no effect (˜1000+ progeny))

Q: With `C=CCN(CC=C)c1nc(NC2CCCCCCCCCCC2)ns1` [compound 334] as the compound, how does the “5 Day Visual Score V6” value read?
A: OK (no effect (˜1000+ progeny))

Q: Which “5 Day Visual Score V6” value does the source give for `CN(CCc1ccccc1)c1nc(NC2CCCCCCCCCCC2)ns1` [compound 335] here?
A: < (reduced broodsize (250-500 progeny))

Q: Which “5 Day Visual Score V6” value does the source give for `CN(Cc1ccccc1)c1nc(NC2CCCCCCCCCCC2)ns1` [compound 336] here?
A: OK (no effect (˜1000+ progeny))

Q: With `COc1ccc(CCN(C)c2nc(NC3CCCCCCCCCCC3)ns2)cc1OC` [compound 337] as the compound, how does the “5 Day Visual Score V6” value read?
A: OK (no effect (˜1000+ progeny))

Q: For `FC(F)(F)c1cccc(N2CCN(c3nc(Cl)ns3)CC2)c1` [compound 338], which “5 Day Visual Score V6” value is on record?
A: < (reduced broodsize (250-500 progeny))
